{"source": "patent US20060141473A1", "about": "“Erk7 and erk8, novel diagnostic markers for cancer” (priority 2003, published 2006)", "key": {"[1]": {"system": "ERα-regulated transcription", "test": "ERE-luciferase transcriptional analysis in MCF-7 stable lines", "type": "cell-based, human"}, "ERα": {"system": "ERα", "test": "ERα protein levels by immunoblot in transfected BHK cells treated with proteasome inhibitor", "type": "cell-based, hamster", "settings": "presence and absence of estradiol", "experimental": "BHK cells were transfected in 10 mm dishes with calcium phosphate and 1 μg of wild type or mutant ERα or FLAG-IκBα or HA-SF1 or HA-AR construct, 5 μg of a construct encoding a wild type or mutant kinase or vector control. At 8 h post transfection, the cells were washed with phosphate-buffered saline (PBS) and placed in Dulbecco's modified Eagle's medium (DMEM) with 5% fetal calf serum (FCS)."}, "MAPK(ERK1/2)": {"system": "MAPK(ERK1/2)", "settings": "cells expressing MAPK(ERK1/2); cited from earlier work"}, "ERK7/8": {"system": "ERK7/8", "settings": "cited from earlier work"}, "[2]": {"biological_target": "T1, bacterially expressed ERK7 (Rattus norvegicus, UniProt Q9Z2A6)", "T1 construct": "HIS-tag; made in house; host or cells: bacteria", "T1 sequence (Q9Z2A6 1-547)": "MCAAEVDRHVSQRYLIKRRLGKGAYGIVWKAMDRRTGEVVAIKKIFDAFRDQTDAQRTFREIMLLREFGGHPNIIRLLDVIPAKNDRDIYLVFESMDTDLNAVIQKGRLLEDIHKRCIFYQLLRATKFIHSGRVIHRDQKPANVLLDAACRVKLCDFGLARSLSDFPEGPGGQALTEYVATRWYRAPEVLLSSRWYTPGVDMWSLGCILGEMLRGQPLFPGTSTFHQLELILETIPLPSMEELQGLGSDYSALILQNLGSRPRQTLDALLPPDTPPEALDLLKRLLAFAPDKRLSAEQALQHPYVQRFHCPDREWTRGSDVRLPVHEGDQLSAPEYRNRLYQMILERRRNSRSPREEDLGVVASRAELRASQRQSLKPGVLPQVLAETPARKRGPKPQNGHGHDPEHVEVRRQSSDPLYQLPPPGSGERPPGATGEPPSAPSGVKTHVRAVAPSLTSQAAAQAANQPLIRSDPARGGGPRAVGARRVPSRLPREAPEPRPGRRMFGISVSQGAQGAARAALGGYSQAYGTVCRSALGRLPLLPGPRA", "test": "ERK7 kinase assay, phosphorylation of GST-MBPtide, HRP-ELISA", "type": "biochemical", "settings": "purified ERK7 5 nM", "experimental": "FIG. 1: is a graph representing the determination of the KM of ATP for bacterially expressed ERK7. Purified ERK7 (5 nM) was incubated in the presence of increasing ATP concentrations. The concentration of ATP supporting maximal velocity of the kinase reaction is 1 mM. The concentration of ATP supporting half-maximal velocity (KM) is ˜100 μM. Background is the measured signal from reactions carried out in the presence of 200 mM EDTA, which eliminates kinase activity. The background has not been subtracted from the ERK7 signal. Phosphorylation of the immobilized GST-MBPtide was detected using the HRP-ELISA as described in Example 1.\nKinase assays were developed to measure the activity of rat ERK7 and human ERK8. Purified, recombinant ERK7 and ERK8 were obtained by introducing a HIS-tag in frame with the coding sequence of the kinases, expressing the proteins in bacteria and purifying the proteins over a NiNTA resin (Qiagen, Valencia, Calif.). […]\nThe kinase assays were performed in a 96 well format according to the following procedure. […] All assays measured the initial velocity of reaction. […] HRP activity was measured using Western Lightning Chemiluminescence Reagent (NEL102, PerkinElmer Life Sciences) according to manufacturer's protocol. Maximum and minimum activity is the relative luminescence detected in the presence of vehicle and 200 mM EDTA, respectively. […]"}}, "note": "Residues, ends and D or L forms follow the SMILES beside them. *: point of attachment. Cbz = O=C(OCc1ccccc1)*", "data": [{"smiles": "CC(C)C[C@@H](C=O)NC(=O)[C@H](CC(C)C)NC(=O)[C@H](CC(C)C)NC(=O)OCc1ccccc1", "note": "[MG132] (Cbz-Leu-Leu-Leu-aldehyde)", "values": [{"measurement": "effect on transcriptional response", "setting": "[1]; MCF-7 cells stably expressing K43A-ERK7, ERE-luciferase reporter", "result": "not affected"}, {"measurement": "increase of transcriptional response to estradiol", "setting": "[1]; MCF-7 control (vector) stable cells, ERE-luciferase reporter", "result": "~3", "unit": "fold"}, {"measurement": "effect on ERα protein levels", "setting": "ERα", "result": "increased ERα protein levels"}]}, {"smiles": "C=C1[C@@H](O)[C@@H]2O[C@]3(CC[C@H](/C=C/[C@@H](C)[C@@H]4CC(C)=C[C@@]5(O[C@H](C[C@@](C)(O)C(=O)O)CC[C@H]5O)O4)O3)CC[C@H]2O[C@@H]1[C@@H](O)C[C@H](C)[C@H]1O[C@@]2(CCCCO2)CC[C@H]1C", "note": "[okadaic acid]", "values": [{"measurement": "effect on amount of TEY phosphorylated MAPK(ERK1/2)", "setting": "MAPK(ERK1/2)", "result": "increases"}, {"measurement": "effect on ERK7/8 TEY phosphorylation", "setting": "ERK7/8", "result": "no effect"}]}, {"smiles": "Nc1ncnc2c1ncn2[C@@H]1O[C@H](COP(=O)(O)OP(=O)(O)OP(=O)(O)O)[C@@H](O)[C@H]1O", "note": "[ATP]", "values": [{"measurement": "concentration supporting maximal velocity of the kinase reaction", "setting": "[2]", "result": 1, "unit": "mM"}, {"measurement": "Km", "setting": "[2]; increasing ATP, read-out: KM (concentration supporting half-maximal velocity)", "result": "~100", "unit": "µM"}]}]}
